The values that follow come from PubChem BioAssay AID328 (DTP/NCI, 2004).

The subject of the test is BDF1 mice, P388 leukemia ip, median survival T/C. The experiment in a line: NCI In Vivo Anticancer Drug Screen. Data for tumor model P388 Leukemia (intraperitoneal) in B6D2F1 (BDF1) mice. To be noted: endpoint: median survival time, higher = longer survival. An outline of the steps: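 T/C = treated-group survival ÷ vehicle-control survival; tumour transplanted into mice before dosing.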

[1] abbreviates: dose: 25.0 mg/kg/injection, schedule: Q01DX009 (ip), vehicle: saline with Tween-80.
The mark [2] stands for this setting: dose: 50.0 mg/kg/injection, schedule: Q01DX009 (ip), vehicle: saline with Tween-80.
Setting [3] is: dose: 100.0 mg/kg/injection, schedule: Q01DX009 (ip), vehicle: saline with Tween-80.
[4] abbreviates: dose: 100.0 mg/kg/injection, schedule: Q04DX003 (ip), vehicle: saline with Tween-80.
The mark [5] stands for this setting: dose: 200.0 mg/kg/injection, schedule: Q01DX009 (ip), vehicle: saline with Tween-80.
Where [6] appears, read: dose: 200.0 mg/kg/injection, schedule: Q04DX003 (ip), vehicle: saline with Tween-80.
The mark [7] stands for this setting: dose: 400.0 mg/kg/injection, schedule: Q04DX003 (ip), vehicle: saline with Tween-80.
[8] abbreviates: dose: 6.25 mg/kg/injection, schedule: Q01DX009 (ip), vehicle: saline with Tween-80.
Where [9] appears, read: dose: 12.5 mg/kg/injection, schedule: Q01DX009 (ip), vehicle: saline with Tween-80.
[10] abbreviates: dose: 100.0 mg/kg/injection, schedule: Q04DX003 (ip), vehicle: saline.
Where [11] appears, read: dose: 200.0 mg/kg/injection, schedule: Q04DX003 (ip), vehicle: saline.

“And” between values parts separate entries of the source, which are not always exact repeats. Equal entries are not always repeated. Toxic doses and inconclusive results are not listed.

Turning to `Cc1ccc(C(=O)O)cc1S(=O)(=O)F`, the T/C is, setting by setting: under setting [1], 114 % of control; under setting [2], 104 % of control; (dose: 50.0 mg/kg/injection, schedule: Q04DX003 (ip), vehicle: saline with Tween-80) 101 % of control; under setting [3], 98 % of control; under setting [4], 102 % of control; under setting [5], 104 % of control. Besides, the T/C under setting [6] was 101 % of control; the T/C (dose: 300.0 mg/kg/injection, schedule: Q01DX009 (ip), vehicle: saline with Tween-80) is 110 % of control; the T/C (dose: 400.0 mg/kg/injection, schedule: Q01DX009 (ip), vehicle: saline with Tween-80) was 123 % of control; the T/C under setting [7] is 101 % of control.

In the case of `CCN1CCCC(Nc2nc(Nc3cc(Cl)cc(Cl)c3)nc3ccc(Cl)cc23)C1` (stereo unspecified), the T/C runs as follows: under setting [8], 122 % of control; under setting [9], 109 % of control; under setting [1], 109 % of control.

Consider `O=C(COc1cccc(Cl)c1Cl)Nc1cccnc1`, for which the T/C is 100 % of control (dose: 37.5 mg/kg/injection, schedule: Q01DX001 (ip), vehicle: saline with Tween-80); 104 % of control (dose: 75.0 mg/kg/injection, schedule: Q01DX001 (ip), vehicle: saline with Tween-80); 100 % of control (dose: 150.0 mg/kg/injection, schedule: Q01DX001 (ip), vehicle: saline with Tween-80).

`Cc1ccc(C[P+](c2ccccc2)(c2ccccc2)c2ccccc2)cc1`: the T/C reads like this: (dose: 2.5 mg/kg/injection, schedule: Q01DX010 (ip), vehicle: saline) 114 % of control; (dose: 5.0 mg/kg/injection, schedule: Q01DX010 (ip), vehicle: saline) 114 % of control; (dose: 10.0 mg/kg/injection, schedule: Q01DX010 (ip), vehicle: saline) 104 % of control.

For `Cc1ccc(NC(=O)Nc2ccccc2Cl)cc1Cl`, the T/C under setting [10] is 104 % of control; the T/C under setting [11] is 95 % of control; the T/C (dose: 400.0 mg/kg/injection, schedule: Q04DX003 (ip), vehicle: saline) was 95 % of control.

With `O=C1OCC/C1=C1/Nc2ccccc2NC1=O`, the T/C runs as follows: under setting [9], 105 % of control; under setting [1], 100 % of control; under setting [2], 96 % of control.

Take `COC(=O)/C=C1\Sc2ccc(C(F)(F)F)cc2NC1=O`: the T/C under setting [2] was 91 % of control, the T/C under setting [3] is 91 % of control and the T/C under setting [5] was 91 % of control.

Turning to `COc1cccc2c1CCC1C2CC=C2CC3(CCC21C)OCCO3` (stereo unspecified), the T/C was 100 % of control (dose: 50.0 mg/kg/injection, schedule: Q04DX003 (sc), vehicle: steriod suspending solution); 104 % of control (dose: 100.0 mg/kg/injection, schedule: Q04DX003 (sc), vehicle: steriod suspending solution); 91 % of control (dose: 200.0 mg/kg/injection, schedule: Q04DX003 (sc), vehicle: steriod suspending solution); 100 % of control (dose: 400.0 mg/kg/injection, schedule: Q04DX003 (sc), vehicle: steriod suspending solution).

Consider `CC(C)(O)C1C2OC(=O)C1C1(O)CC3OC34C(=O)OC2C14C` (stereo unspecified), for which the T/C (dose: 12.5 mg/kg/injection, schedule: Q04DX003 (ip), vehicle: saline with Tween-80) is 109 % of control and the T/C (dose: 25.0 mg/kg/injection, schedule: Q04DX003 (ip), vehicle: saline with Tween-80) is 95 % of control.

As for `Cc1ccc(NC2=CC(=O)C(=O)C=C2Nc2ccc(C)cc2)cc1`, the T/C is 88 % of control (dose: 15.0 mg/kg/injection, schedule: Q01DX009 (ip), vehicle: saline with Tween-80); 88 % of control (dose: 30.0 mg/kg/injection, schedule: Q01DX009 (ip), vehicle: saline with Tween-80); 100 % of control (dose: 60.0 mg/kg/injection, schedule: Q01DX009 (ip), vehicle: saline with Tween-80).

With `ClC(Cl)=C1OCCO1`, the T/C by setting is: under setting [2], 104 % of control; under setting [3], 98 % of control; under setting [5], 100 % of control.

For `Clc1ccc(CNc2ncnc3[nH]ncc23)cc1`, the T/C by setting is: (dose: 3.13 mg/kg/injection, schedule: Q01DX009 (ip), vehicle: saline with Tween-80) 91 % of control; under setting [8], 87 % of control; under setting [9], 89 % of control; under setting [1], 105 % of control.

`CC(=N\[O-])/C(C)=N/O.CC(=N\[O-])/C(C)=N/O.[Cl-].[Cl-].[Rh+3].c1ccncc1`: the T/C (dose: 75.0 mg/kg/injection, schedule: Q01DX009 (ip), vehicle: water) was 110 % of control and the T/C (dose: 150.0 mg/kg/injection, schedule: Q01DX009 (ip), vehicle: water) was 110 % of control.

On to `CN(C)P(=O)(N(C)C)N1CC1`, for which the T/C was 192 % of control (dose: 90.0 mg/kg/injection, schedule: Q04DX003 (ip), vehicle: saline); 157 % of control under setting [10]; 176 % of control (dose: 135.0 mg/kg/injection, schedule: Q04DX003 (ip), vehicle: saline); 233 % of control and 211 % of control under setting [11].

Take `NCCCCC1NC(=O)C(CCCCN)NC1=O` (stereo unspecified): the T/C is 105 % of control (dose: 50.0 mg/kg/injection, schedule: Q01DX005 (ip), vehicle: saline); 105 % of control (dose: 100.0 mg/kg/injection, schedule: Q01DX005 (ip), vehicle: saline); 95 % of control (dose: 200.0 mg/kg/injection, schedule: Q01DX005 (ip), vehicle: saline).

Regarding `CN1CC([N+](=O)[O-])C(=O)C([N+](=O)[O-])C1` (stereo unspecified), the T/C by setting is: (dose: 50.0 mg/kg/injection, schedule: Q01DX005 (ip), vehicle: saline with Tween-80) 92 % of control; (dose: 100.0 mg/kg/injection, schedule: Q01DX005 (ip), vehicle: saline with Tween-80) 87 % of control; (dose: 200.0 mg/kg/injection, schedule: Q01DX005 (ip), vehicle: saline with Tween-80) 103 % of control.

Consider `CC1(C)CC2C(=O)c3ccccc3NC2c2ccccc21` (stereo unspecified), for which the T/C is 87 % of control (dose: 100.0 mg/kg/injection, schedule: Q01DX009 (ip), vehicle: Klucel (hydroxypropylcellulose) (HPC)); 112 % of control (dose: 100.0 mg/kg/injection, schedule: Q04DX003 (ip), vehicle: Klucel (hydroxypropylcellulose) (HPC)); 108 % of control (dose: 200.0 mg/kg/injection, schedule: Q01DX009 (ip), vehicle: Klucel (hydroxypropylcellulose) (HPC)); 104 % of control (dose: 200.0 mg/kg/injection, schedule: Q04DX003 (ip), vehicle: Klucel (hydroxypropylcellulose) (HPC)); 108 % of control (dose: 400.0 mg/kg/injection, schedule: Q04DX003 (ip), vehicle: Klucel (hydroxypropylcellulose) (HPC)).

Consider `O=C(CN1CC1)NCCCCCCCCCNC(=O)CN1CC1`, for which the T/C is 122 % of control (dose: 8.0 mg/kg/injection, schedule: Q04DX003 (ip), vehicle: saline); 122 % of control (dose: 12.0 mg/kg/injection, schedule: Q04DX003 (ip), vehicle: saline); 122 % of control (dose: 18.0 mg/kg/injection, schedule: Q04DX003 (ip), vehicle: saline); 218 % of control (dose: 18.75 mg/kg/injection, schedule: Q04DX003 (ip), vehicle: saline sonified); 172 % of control (dose: 37.5 mg/kg/injection, schedule: Q04DX003 (ip), vehicle: saline sonified).

Consider `c1ccc2c(c1)ccc1cc3c(ccc4ccccc43)cc12`, for which the T/C runs as follows: under setting [3], 120 % of control; under setting [4], 118 % of control; under setting [5], 112 % of control; under setting [6], 109 % of control; under setting [7], 109 % of control.

With `NC(=S)N/N=C/c1ccccc1N`, the T/C was 104 % of control (dose: 100.0 mg/kg/injection, schedule: Q01DX001 (ip), vehicle: Klucel (hydroxypropylcellulose) (HPC)); 104 % of control (dose: 200.0 mg/kg/injection, schedule: Q01DX001 (ip), vehicle: Klucel (hydroxypropylcellulose) (HPC)); 108 % of control (dose: 400.0 mg/kg/injection, schedule: Q01DX001 (ip), vehicle: Klucel (hydroxypropylcellulose) (HPC)).

As for `COC(=O)c1ccc(-c2cc(Cl)c3cc(S(=O)(=O)F)ccc3n2)cc1`, the T/C was 90 % of control under setting [3] and 90 % of control under setting [5].
